These results are taken from patent US20090239901A1, “METHOD AND COMPOSITIONS FOR TREATMENT OF CEREBRAL MALARIA” (priority 2008, published 2009).

Structures are written as SMILES.

The test system of one assay is Janus kinase 2 (Jak2). Briefly: attenuation of Compound A effects by Jak2 inhibitor. The settings on record: both in vitro and in vivo. An excerpt:
(§1) All of these events were reported to be important in the development of Cerebral Malaria (CM).

In the next assay the test system is TNF. Kind of assay: TNF expression.
Description: as §1

A further assay deals with ICAM-1. Briefly: TNFα-induced production of ICAM-1 in human brain microvascular endothelial cells. Conditions: TNF-treated human brain microvascular endothelial cells (MVECs). The format is cell-based.
Description: as §1

Assay [1] has as its system more than 60 receptors and enzymes.
The next assay deals with microglia. Briefly: LPS-induced microglial inflammation in vivo. Conditions: LPS 1 mg/kg i.p. on days 1, 3 and 5. The protocol:
Animals were treated with either vehicle and 8% 2H2O label for 1 week. LPS (1 mg/kg, i.p) was injected on days 1, 3 and 5 of drug treatment and label. Microglia were isolated from brain and sorted by flow cytometry as CD11b+, F4/80+ cells. DNA was isolated from sorted microglia cells, hydrolyzed and derivatized for GC/MS analyses.

The test system of the next assay is VCAM-1. Kind of assay: TNFα-induced production of VCAM-1 in human brain microvascular endothelial cells. The class given is cell-based. Conditions: TNF-treated human brain microvascular endothelial cells (MVECs).
Description: as §1

For the next assay, the system named is hippocampal neurogenesis. Kind of assay: hippocampal neurogenesis in vivo. The settings on record: 1 week treatment, 2H2O label.
In a further assay the test system is sepsis-induced death. Kind of assay: sepsis-induced death in rodents (survival study). The class given is in vivo. The method, then:
FIG. 5 is a graph showing results of a study that indicates α7 agonists can prevent sepsis-induced death in rodents. Survival was monitored daily from day 0 to day 6. In the vehicle control group there was a 13% survival by day 6. In the animals treated with 0.003 mg/kg Compound B, there was a 13% survival by day (NS, p=0.360). In the animals treated with 0.03 mg/kg Compound B, there was also a 13% survival by day (NS, p=0.528). […] Survival was 47% in this group, a significant improvement in survival (p=0.005).

In the case of `N#C/C(=C/c1ccc(O)c(O)c1)C(=O)NCc1ccccc1` [AG-490], the “effect on the effects of Compound A” value in the assay on Janus kinase 2 (Jak2) was “attenuates the effects of Compound A”.
With `Cc1ccc(C(=O)N[C@@H]2C3CCN(CC3)[C@H]2Cc2cccnc2)s1` [Compound A, (2S,3R)-N-(2-((3-pyridinyl)methyl)-1-azabicyclo[2.2.2]oct-3-yl)-5-methylthiophene-2-carboxamide], in the assay on TNF, the TNF expression result is listed as “significantly inhibits TNF expression”. Further, the “levels of ICAM-1 expression” value in the assay on ICAM-1 is “decreases the levels of ICAM-1 and VCAM-1 expression”. In assay [1], the “separation with other targets” value is 100-1000. In addition, the microglial inflammation result in the assay with microglia was “prevents microglial inflammation in vivo”. In addition, the “levels of VCAM-1 expression” value in the assay with VCAM-1 was “decreases the levels of ICAM-1 and VCAM-1 expression”. Besides, the hippocampal neurogenesis result with hippocampal neurogenesis is given as “promotes hippocampal neurogenesis in vivo”.
As to `O=C(N[C@@H]1C2CCN(CC2)[C@H]1Cc1cccnc1)c1cc2ccccc2o1` [Compound B, (2S,3R)-N-(2-((3-pyridinyl)methyl)-1-azabicyclo[2.2.2]oct-3-yl)benzofuran-2-carboxamide], the “survival by day 6” value in the assay with sepsis-induced death (0.003 mg/kg, NS, p=0.360, vehicle control 13%) is given as 13%; in the assay with sepsis-induced death (0.03 mg/kg, NS, p=0.528, vehicle control 13%), 13%; in the assay with sepsis-induced death (0.3 mg/kg, p=0.005, vehicle control 13%), 47%.
